This is an account of results in ChEMBL document CHEMBL4706688 (J Med Chem, 2021).

Assay [1] can be described thus: cells. In kind it is functional, tissue-based, UKE-1. The following applies: Homo sapiens, UKE1, 72 h.
Assay [2] has as its target T1, Tyrosine-protein kinase JAK2 (Homo sapiens, UniProt O60674). The following applies: HEK293F, dose 100.0 µM.
The target in assay [3] is T1, Tyrosine-protein kinase JAK2. In words: biochemical.

pIC50: −log10 of the molar value.

T1 sequence (O60674 whole entry): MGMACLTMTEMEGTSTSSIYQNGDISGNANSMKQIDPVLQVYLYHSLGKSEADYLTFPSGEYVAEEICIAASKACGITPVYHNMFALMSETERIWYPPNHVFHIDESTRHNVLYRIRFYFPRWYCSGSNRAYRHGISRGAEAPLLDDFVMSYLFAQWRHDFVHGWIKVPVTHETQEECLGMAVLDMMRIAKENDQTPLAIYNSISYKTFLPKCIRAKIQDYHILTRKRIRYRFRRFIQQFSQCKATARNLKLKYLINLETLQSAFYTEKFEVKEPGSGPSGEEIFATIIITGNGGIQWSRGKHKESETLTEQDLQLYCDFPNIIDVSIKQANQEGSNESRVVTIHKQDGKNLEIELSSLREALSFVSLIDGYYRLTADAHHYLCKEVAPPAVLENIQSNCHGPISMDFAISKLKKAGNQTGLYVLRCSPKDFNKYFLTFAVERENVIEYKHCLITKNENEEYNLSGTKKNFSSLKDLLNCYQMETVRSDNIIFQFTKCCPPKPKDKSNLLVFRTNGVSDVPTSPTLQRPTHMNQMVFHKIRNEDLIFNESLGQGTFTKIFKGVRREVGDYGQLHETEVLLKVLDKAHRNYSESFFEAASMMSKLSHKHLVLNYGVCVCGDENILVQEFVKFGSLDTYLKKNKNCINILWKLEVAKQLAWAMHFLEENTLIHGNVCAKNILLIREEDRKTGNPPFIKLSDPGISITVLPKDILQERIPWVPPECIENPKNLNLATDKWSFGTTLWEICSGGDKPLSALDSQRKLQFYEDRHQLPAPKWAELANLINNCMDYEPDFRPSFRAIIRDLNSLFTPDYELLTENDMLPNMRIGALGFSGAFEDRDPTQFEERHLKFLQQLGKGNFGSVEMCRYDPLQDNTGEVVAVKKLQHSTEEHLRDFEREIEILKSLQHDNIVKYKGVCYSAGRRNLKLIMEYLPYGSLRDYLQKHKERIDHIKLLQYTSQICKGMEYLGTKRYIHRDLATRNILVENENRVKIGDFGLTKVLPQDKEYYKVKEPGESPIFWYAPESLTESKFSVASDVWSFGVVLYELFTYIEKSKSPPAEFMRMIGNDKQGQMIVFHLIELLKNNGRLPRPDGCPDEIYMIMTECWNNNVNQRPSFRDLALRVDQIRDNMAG

With `N#CCCn1cc(-c2nc(Nc3ccc(C4CCNCC4)cc3)nc3[nH]ccc23)cn1`, the negative logarithm of the IC50 (pIC50) in assay [1] is 5.35. For the same compound, the shift in melting temperature (ΔTm) in assay [2] turned out to be 7 °C.
As for `Cc1cnc(Nc2ccc(OCCN3CCCC3)cc2)nc1Nc1cccc(S(=O)(=O)NC(C)(C)C)c1` [FEDRATINIB], in assay [1], the pIC50 was 6.18.
For `N#CC[C@H](C1CCCC1)n1cc(-c2nc(Nc3ccc(C4CCNCC4)cc3)nc3[nH]ccc23)cn1`, the ΔTm in assay [2] is 12 °C.
Compound `Cc1cnc(Nc2ccc(C3CCN(C)CC3)c(F)c2)nc1Nc1ccc(F)c(NS(=O)(=O)C(C)(C)C)c1` gave a negative logarithm of the IC50 (pIC50) in assay [1] of 6.70. Moreover, the ΔTm in assay [2] came out at 3.1 °C.
In the same order, the values of `Cc1cnc(Nc2ccc(C3CCN(C)CC3)c(F)c2)nc1Nc1ccc2c(c1)N(S(=O)(=O)C(C)(C)C)CC2` are 6.68 and 4.3 °C.
In assay [1], `C=CCCn1cc(-c2nc(Nc3ccc(C4CCNCC4)cc3)nc3[nH]ccc23)cn1` showed a pIC50 of 6.21. The ΔTm in assay [2] was determined as 6.4 °C.
On to `N#CC[C@@H](C1CCCC1)n1cc(-c2nc(Nc3ccc(C4CCNCC4)cc3)nc3[nH]ccc23)cn1`, for which the ΔTm in assay [2] worked out at 8.3 °C.
Regarding `N#CCC(C1CCCC1)n1cc(-c2nc(Nc3ccc(C4CCNCC4)cc3)nc3[nH]ccc23)cn1` (racemic), in assay [3], the pIC50 is greater than 10.30. Besides, the ΔTm in assay [2] was determined as 11.8 °C.
For the compound `Cc1cnc(Nc2cc(F)c(C3CCN(C)CC3)c(F)c2)nc1Nc1ccc(F)c(NS(=O)(=O)C(C)(C)C)c1`, the pIC50 in assay [1] is 6.82. Further, in assay [2], the thermal shift (ΔTm) turned out to be 3.2 °C.
